Laboratory results: patent US9695155B2, “Herbicidal substituted pyrimidinyloxy benzene compounds” (E. I. DU PONT DE NEMOURS AND COMPANY, priority 2013, dated 2017)

What was measured:
waterhemp = test: Test E postemergence; format: in vivo, Amaranthus rudis; conditions: Amaranthus tuberculatus, post-emergence, read-out: Plant response rating, Waterhemp
Source text: (§1) Seeds of plant species selected from corn (Zea mays), soybean (Glycine max), velvetleaf (Abutilon theophrasti), lambsquarters (Chenopodium album), wild poinsettia (Euphorbia heterophylla), palmer pigweed (Amaranthus palmeri), waterhemp (common waterhemp, Amaranthus rudis), surinam grass (Brachiaria decumbens), large (Lg) crabgrass (Digitaria sanguinalis), Brazilian crabgrass (Digitaria horizontalis), fall panicum (Panicum dichotomiflorum), giant foxtail (Setaria faberii), green foxtail (Setaria viridis), goosegrass (Eleusine indica), johnsongrass (Sorghum halepense), ragweed (common ragweed, Ambrosia elatior), barnyardgrass (Echinochloa crus-galli), sandbur (southern sandbur, Cenchrus echinatus), arrowleaf sida (Sida rhombifolia), Italian ryegrass (Lolium multiflorum), dayflower (Virginia (VA) dayflower, Commelina virginica), field bindweed (Convolvulus arvensis), morningglory (Ipomoea coccinea), nightshade (eastern black nightshade, Solanum ptycanthum), kochia (Kochia scoparia), yellow nutsedge (Cyperus esculentus), cocklebur (common cocklebur, Xanthium strumarium), smartweed (ladysthumb smartweed, and hairy beggarticks (Bidens pilosa), were planted into a silt loam soil and treated preemergence with test chemicals formulated in a non-phytotoxic solvent mixture which included a surfactant.
(§2) At the same time, plants from these crop and weed species and also horseweed (Canada horseweed, Conyza canadensis), waterhemp_RES1, (ALS & Triazine resistant common waterhemp, Amaranthus rudis), and waterhemp_RES2, (ALS & HPPD resistant common waterhemp, Amaranthus rudis) were planted in pots containing Redi-Earth® planting medium (Scotts Company, 14111 Scottslawn Road, Marysville, Ohio 43041) comprising spaghnum peat moss, vermiculite, wetting agent and starter nutrients were treated with postemergence applications of test chemicals formulated in the same manner. Plants ranged in height from 2 to 18 cm for postemergence treatments (1- to 4-leaf stage). Treated plants and controls were maintained in a greenhouse for 14 to 21 days, after which time all species were compared to controls and visually evaluated. Plant response ratings, summarized in Table E, are based on a scale of 0 to 100 where 0 is no effect and 100 is complete control. A dash (-) response means no test result.

[1] = system: waterhemp_RES2 (ALS & HPPD resistant common waterhemp); test: Test E postemergence; format: in vivo, Amaranthus rudis; conditions: Amaranthus tuberculatus, post-emergence, read-out: Plant response rating, Waterhemp_RES2
Source text: as §1, §2

oilseed rape = test: Test D preemergence; format: in vivo, Brassica napus; conditions: Brassica napus, pre-emergence
Outline: (§3)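 Plant response is a visual score from 0 (no effect) to 100 (complete control) relative to controls. Plants were kept in a controlled growth environment for 7 to 21 days after spraying. Preemergence treatments went onto silt loam soil; postemergence ones onto 1- to 4-leaf seedlings.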

canarygrass = test: Test D postemergence; format: in vivo, Phalaris minor; conditions: Phalaris minor, post-emergence
Outline: as §3

green foxtail [2] = test: Test D preemergence; format: in vivo, Setaria viridis; conditions: Setaria viridis, pre-emergence
Outline: as §3

lambsquarters = test: Test D postemergence; format: in vivo, Chenopodium album; conditions: Chenopodium album, post-emergence
Outline: as §3

green foxtail [3] = test: Test D postemergence; format: in vivo, Setaria viridis; conditions: Setaria viridis, post-emergence
Outline: as §3

wild poinsettia = test: Test E postemergence; format: in vivo, Euphorbia heterophylla; conditions: Euphorbia heterophylla, post-emergence, read-out: Plant response rating, Poinsettia, Wild
Outline: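 Test chemicals formulated in a non-phytotoxic solvent mixture containing a surfactant were applied preemergence to seeds in silt loam soil or postemergence to plants at the 1- to 4-leaf stage in potting mix. After 14 to 21 days in a greenhouse, injury was visually rated against controls on a 0-100 scale (0 = no effect, 100 = complete control).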

chamomile = test: Test D postemergence; format: in vivo, Matricaria inodora; conditions: Tripleurospermum inodorum, post-emergence
Outline: as §3

kochia = test: Test D postemergence; format: in vivo, Kochia scoparia; conditions: Bassia scoparia, post-emergence
Outline: as §3

spring barley = test: Test D postemergence; format: in vivo, Hordeum vulgare; conditions: Hordeum vulgare, post-emergence, Postemergence, scale 0 to 100 (0 no effect, 100 complete control), read-out: Plant response rating, Barley, Spring
Outline: as §3

winter barley = test: Test D postemergence; format: in vivo, Hordeum vulgare; conditions: Hordeum vulgare, post-emergence, Postemergence, scale 0 to 100 (0 no effect, 100 complete control), read-out: Plant response rating, Barley, Winter
Outline: as §3

wild buckwheat = test: Test D postemergence; format: in vivo, Polygonum convolvulus; conditions: Fallopia convolvulus, post-emergence, Postemergence, scale 0 to 100 (0 no effect, 100 complete control), read-out: Plant response rating, Buckwheat, Wild
Outline: as §3

[4] = Postemergence, 31 g ai/ha, scale 0 to 100
[5] = Postemergence, 62 g ai/ha, scale 0 to 100
[6] = Postemergence, 125 g ai/ha, scale 0 to 100
[7] = postemergence, 8 g ai/ha, scale 0 to 100, 0 no effect, 100 complete control
[8] = postemergence, 16 g ai/ha, scale 0 to 100, 0 no effect, 100 complete control

Clc1cnc(Oc2ccccc2-n2cc(Br)cn2)nc1 [Compound 7, 2-[2-(4-bromo-1H-pyrazol-1-yl)phenoxy]-5-chloropyrimidine]
100%: plant injury at 125 g/ha (oilseed rape; 125 g ai/ha, scale 0-100, read-out: Plant response rating, Oilseed Rape) | plant injury at 250 g/ha (oilseed rape; 250 g ai/ha, scale 0-100, read-out: Plant response rating, Oilseed Rape) | pest or weed control at 250 g/ha (lambsquarters; 250 g ai/ha, scale 0 to 100 (0 no effect, 100 complete control), read-out: Plant response rating, Lambsquarters) | pest or weed control at 62 g/ha (kochia; 62 g ai/ha, scale 0 to 100 (0 no effect, 100 complete control), read-out: Plant response rating, Kochia) | pest or weed control at 125 g/ha (kochia; 125 g ai/ha, scale 0 to 100 (0 no effect, 100 complete control), read-out: Plant response rating, Kochia) | pest or weed control at 250 g/ha (kochia; 250 g ai/ha, scale 0 to 100 (0 no effect, 100 complete control), read-out: Plant response rating, Kochia) | pest or weed control at 250 g/ha (wild buckwheat; 250 g ai/ha)
75%: pest or weed control at 16 g/ha [1, 8]
90%: pest or weed control at 31 g/ha (waterhemp; [4]) | pest or weed control at 62 g/ha (waterhemp; [5]) | pest or weed control at 125 g/ha (waterhemp; [6]) | pest or weed control at 62 g/ha [1, 5] | pest or weed control at 125 g/ha (lambsquarters; 125 g ai/ha, scale 0 to 100 (0 no effect, 100 complete control), read-out: Plant response rating, Lambsquarters)
95%: pest or weed control at 125 g/ha [1, 6]
0%: plant injury at 16 g/ha (oilseed rape; 16 g ai/ha, scale 0 (no effect) to 100 (complete control), read-out: Plant response rating, Oilseed Rape) | pest or weed control at 16 g/ha (canarygrass; 16 g ai/ha, scale 0-100, read-out: Plant response rating, Canarygrass) | pest or weed control at 31 g/ha (canarygrass; 31 g ai/ha, scale 0 to 100 (0 no effect, 100 complete control), read-out: Plant response rating, Canarygrass) | pest or weed control at 16 g/ha (green foxtail [2]; 16 g ai/ha, scale 0 (no effect) to 100 (complete control), read-out: Plant response rating, Foxtail, Green) | pest or weed control at 31 g/ha (green foxtail [2]; 31 g ai/ha, scale 0-100, read-out: Plant response rating, Foxtail, Green) | pest or weed control at 62 g/ha (green foxtail [2]; 62 g ai/ha, scale 0-100, read-out: Plant response rating, Foxtail, Green) | pest or weed control at 125 g/ha (green foxtail [2]; 125 g ai/ha, scale 0-100, read-out: Plant response rating, Foxtail, Green) | pest or weed control at 16 g/ha (green foxtail [3]; 16 g ai/ha, scale 0-100, read-out: Plant response rating, Foxtail, Green) | pest or weed control at 31 g/ha (green foxtail [3]; 31 g ai/ha, scale 0 to 100 (0 no effect, 100 complete control), read-out: Plant response rating, Foxtail, Green) | pest or weed control at 62 g/ha (green foxtail [3]; 62 g ai/ha, scale 0 to 100 (0 no effect, 100 complete control), read-out: Plant response rating, Foxtail, Green) | pest or weed control at 8 g/ha (wild poinsettia; [7]) | pest or weed control at 16 g/ha (chamomile; 16 g ai/ha, scale 0-100, read-out: Plant response rating, Chamomile) | pest or weed control at 31 g/ha (chamomile; 31 g ai/ha, scale 0 to 100 (0 no effect, 100 complete control), read-out: Plant response rating, Chamomile) | pest or weed control at 62 g/ha (chamomile; 62 g ai/ha, scale 0 to 100 (0 no effect, 100 complete control), read-out: Plant response rating, Chamomile) | pest or weed control at 125 g/ha (chamomile; 125 g ai/ha, scale 0 to 100 (0 no effect, 100 complete control), read-out: Plant response rating, Chamomile) | pest or weed control at 250 g/ha (chamomile; 250 g ai/ha, scale 0 to 100 (0 no effect, 100 complete control), read-out: Plant response rating, Chamomile) | plant injury at 16 g/ha (spring barley; 16 g ai/ha) | plant injury at 31 g/ha (spring barley; 31 g ai/ha) | plant injury at 62 g/ha (spring barley; 62 g ai/ha) | plant injury at 16 g/ha (winter barley; 16 g ai/ha) | plant injury at 31 g/ha (winter barley; 31 g ai/ha) | plant injury at 62 g/ha (winter barley; 62 g ai/ha) | plant injury at 125 g/ha (winter barley; 125 g ai/ha) | plant injury at 250 g/ha (winter barley; 250 g ai/ha)
60%: pest or weed control at 62 g/ha (wild poinsettia; [5]) | pest or weed control at 125 g/ha (wild poinsettia; [6]) | pest or weed control at 62 g/ha (wild buckwheat; 62 g ai/ha)
25%: plant injury at 62 g/ha (oilseed rape; 62 g ai/ha, scale 0-100, read-out: Plant response rating, Oilseed Rape) | pest or weed control at 250 g/ha (canarygrass; 250 g ai/ha, scale 0 to 100 (0 no effect, 100 complete control), read-out: Plant response rating, Canarygrass)
85%: pest or weed control at 125 g/ha (wild buckwheat; 125 g ai/ha)
10%: plant injury at 31 g/ha (oilseed rape; 31 g ai/ha, scale 0-100, read-out: Plant response rating, Oilseed Rape) | pest or weed control at 125 g/ha (canarygrass; 125 g ai/ha, scale 0 to 100 (0 no effect, 100 complete control), read-out: Plant response rating, Canarygrass) | pest or weed control at 125 g/ha (green foxtail [3]; 125 g ai/ha, scale 0 to 100 (0 no effect, 100 complete control), read-out: Plant response rating, Foxtail, Green)
5%: pest or weed control at 62 g/ha (canarygrass; 62 g ai/ha, scale 0 to 100 (0 no effect, 100 complete control), read-out: Plant response rating, Canarygrass) | plant injury at 125 g/ha (spring barley; 125 g ai/ha) | plant injury at 250 g/ha (spring barley; 250 g ai/ha)
20%: pest or weed control at 250 g/ha (green foxtail [2]; 250 g ai/ha, scale 0-100, read-out: Plant response rating, Foxtail, Green) | pest or weed control at 250 g/ha (green foxtail [3]; 250 g ai/ha, scale 0 to 100 (0 no effect, 100 complete control), read-out: Plant response rating, Foxtail, Green) | pest or weed control at 16 g/ha (wild buckwheat; 16 g ai/ha)
80%: pest or weed control at 16 g/ha (waterhemp; [8]) | pest or weed control at 31 g/ha [1, 4] | pest or weed control at 62 g/ha (lambsquarters; 62 g ai/ha, scale 0 to 100 (0 no effect, 100 complete control), read-out: Plant response rating, Lambsquarters)
70%: pest or weed control at 8 g/ha (waterhemp; [7]) | pest or weed control at 16 g/ha (lambsquarters; 16 g ai/ha, scale 0-100, read-out: Plant response rating, Lambsquarters) | pest or weed control at 31 g/ha (lambsquarters; 31 g ai/ha, scale 0 to 100 (0 no effect, 100 complete control), read-out: Plant response rating, Lambsquarters) | pest or weed control at 31 g/ha (kochia; 31 g ai/ha, scale 0 to 100 (0 no effect, 100 complete control), read-out: Plant response rating, Kochia)
30%: pest or weed control at 31 g/ha (wild poinsettia; [4]) | pest or weed control at 16 g/ha (wild poinsettia; [8]) | pest or weed control at 16 g/ha (kochia; 16 g ai/ha, scale 0-100, read-out: Plant response rating, Kochia) | pest or weed control at 31 g/ha (wild buckwheat; 31 g ai/ha)
